Tests used:
[1] = Body weight in streptozotocin (STZ) diabetic rats; type: in vivo, rat; conditions: daily s.c. D11 to D40 post-STZ; SDF-1α 10, 30, 100 μg/kg, IL-6 10 μg/kg
Protocol: (§1) Eight week-old male Sprague Dawley rats (Janvier, Le Genest Saint Isle, France) were randomly distributed in 6 experimental groups (n=10) as shown below.
(§2) Diabetes was induced by intravenous injection of a buffered solution of streptozotocin (Sigma, L'Isle d'Abeau Chesnes, France) at a dose of 55 mg/kg. STZ was prepared in 0.1 mol/l citrate buffer pH 4.5. Control group received an equivalent volume of citrate buffer. The day of STZ injection was considered as D0.
(§3) Treatment with SDF-1α, with IL-6 or their matched vehicle was performed on daily basis from D11 to D40.

STZ-rats [2] = experiment: Hot plate 52° C. test in STZ diabetic rats; type: in vivo, rat; conditions: D40 post-STZ, SDF-1α 10, 30, 100 μg/kg, IL-6 10 μg/kg s.c.
Protocol: as §1
as §2, with “The control” for “Control”
Treatment with SDF-1α with IL-6 or their matched vehicle was performed on daily basis from D11 to D40.
The animal was placed into a glass cylinder on a hot plate adjusted to 52° C. The latency of the first reaction was recorded (licking, brisk movement of the paws, little leaps or a jump to escape the heat) with a cutoff time of 30 s.

STZ-rats [3] = experiment: STZ diabetic neuropathy, electromyography (CMAP latency, SNCV); type: in vivo, rat; conditions: D25 post-STZ (similar profile at D40), IL-6 10 μg/kg s.c.; for sensory nerve conduction velocity (SNCV) of diabetic rats: SDF-1α 10, 30, 100 μg/kg (best effect 10 and 30 μg/kg); for CMAP latency of diabetic rats vs vehicle-treated diabetic rats: SDF-1α 10, 30, 100 μg/kg
Protocol: as §1, §2, §3
Planning of Experiments • Day −7: baseline (EMG) • Day 0: induction by the streptozotocin • Day 7: glycemia monitoring • Day 11: Onset of the treatment • Day 20: Von Frey test • Day 25: EMG monitoring • Day 40: EMG monitoring and HP 52° C. test • Day 41: sciatic nerves and skin biopsy samples were taken off for the histomorphometric analysis.
Electrophysiological recordings were performed using electromyograph (Keypoint, Medtronic, Boulogne-Billancourt, France). Rats were anaesthetized by intraperitoneal injection (IP) of 60 mg/kg ketamine chlorhydrate (Imalgene 500®, Rhône Mérieux, Lyon. France) and 4 mg/kg xylazin (Rompum 2%, Bayer Pharma, Kiel, Germany). The normal body temperature was maintained at […] with a heating lamp and controlled by a contact thermometer (Quick, Bioblock Scientific, Illkirch, France) placed on the tail surface.
Compound muscle action potential (CMAP) was recorded in the gastrocnemius muscle after stimulation of the sciatic nerve. A reference electrode and an active needle were placed in the hindpaw. A ground needle was inserted on the lower back of the rat. Sciatic nerve was stimulated with a single 0.2 ms pulse at a supramaximal intensity. The velocity of the motor wave was recorded.
Sensitive nerve conduction velocity (SNCV) was also recorded. The tail skin electrodes were placed as follows: a reference needle inserted at the base of the tail and an anode needle placed 30 mm away from the reference needle towards the extremity of the tail. A ground needle electrode was inserted between the anode and reference needles. The caudal nerve was stimulated with a series of 20 pulses (for 0.2 ms) at an intensity of 12.8 mA. The velocity was expressed in m/s.
Global analysis of the data was performed using one factor or repeated measure analysis of variance (ANOVA) and one-way ANOVA. When ANOVA indicated significant difference, Fisher Protected Least Significant Difference was used as post-hoc test to compare experimental groups with the group of diabetic rats treated with the vehicle. The level of significance was set at p≦0.05. Results are expressed as mean ±standard error of the mean (s.e.m.).

sciatic nerve crush mice = experiment: Neuropathy induced by sciatic nerve crush, electrophysiological recording (CMAP); type: in vivo, mouse; conditions: for increase in the CMAP amplitude as compared to untreated mice: SDF-1α 30 μg/kg or μ/kg, IL-6 30 μ/kg s.c., significant at 15 dpl and 22dpl
Protocol: […] 8 week-old females C57bl/6 RJ mice (Elevage Janvier, Le Genest-St-Isle, France) were used. They were divided into 6 groups (n=6): • (a) nerve crush/Vehicle (Saline/0.02% BSA); • (b) nerve crush/SDF-1α (3 μg/kg); • (c) nerve crush/SDF-1α (10 μg/kg); • (d) nerve crush/SDF-1α (30 μg/kg); • (e) nerve crush/SDF-1α (100 μg/kg); • (f) nerve crush/IL-6 (30 μg/kg).
The animals were anaesthetized by inhalation of 3% Isoflurane (Baxter). The right sciatic nerve was surgically exposed at mid thigh level and crushed at 5 mm proximal to the trifurcation of the sciatic nerve. The nerve was crushed twice for 30s with a haemostatic forceps (width 1.5 mm; Koenig; Strasbourg; France) with a 90-degree rotation between each crush.
Electromyographical (EMG) testing was performed once before the surgery day and each week during 3 weeks following the operation.
The day of nerve crush surgery was considered as dpl 0 (dpl=day post lesion). No test was performed during the 4 days following the crush.
From the day of nerve injury to the end of the study, SDF-1α, IL-6 or Vehicle were administered daily by subcutaneous injections (s.c.) route, 5 days per week.
Electrophysiological recordings were performed using a Neuromatic 2000M electromyograph (EMG) (Dantec, Les Ulis, France). Mice were anaesthetized by inhalation of 3% Isofluran® (Baxter). The normal body temperature was maintained using a heated operating table (Minerve, Esternay, France).
Compound muscle action potential (CMAP) was measured in the gastrocnemius muscle after a single 0.2 ms stimulation of the sciatic nerve at a supramaximal intensity (12.8 mA). The amplitude (mV) and the latency (ms) of the action potential were measured on the operated leg. The measures was also registered on the contralateral (uncrushed) leg of Vehicle treated animals (Baseline). The amplitude is indicative of the number of active motor units, while the distal latency indirectly reflects motor nerve conduction and neuromuscular transmission velocities, which depends in part on the degree of myelination.
Global analysis of the data was performed using one-way ANOVA. Dunnett's test was used further, and data were compared to the “vehicle” control. The level of significance was set at a: p<0.001; b or **: p<0.01; c or *: p<0.05; d: p<0.1. The results were expressed as mean ±standard error of the mean (s.e.m.).
The sciatic nerve crush model described in Example 4 above was carried out to test SDF-1α variant as defined in SEQ ID NO: 4 and the mice were divided into the following 2 groups (n=6):
The SDF-1α variant used in this example and encoded by SEQ ID NO: 4 was expressed with an additional N terminal Methionine. The CMAP duration (time needed for a depolarization and a repolarization session) was also recorded.
The sciatic nerve crush model described in Example 4 above was carried out to test Met-SDF-1α (as defined in SEQ ID NO: 7) and the mice were divided into the following 2 groups (n=6):
(b) nerve crush/Met-SDF-1α variant at 100, 30, and 10 μg/kg s.c.

Row | Substance | body weight of diabetic rats [1] | threshold latency in the hot plate test (STZ-rats [2]) | sensory nerve conduction velocity (SNCV) of diabetic rats (STZ-rats [3]) | CMAP latency of diabetic rats vs vehicle-treated diabetic rats (STZ-rats [3]) | increase in the CMAP amplitude as compared to untreated mice (sciatic nerve crush mice) | potency on CMAP latency compared with IL-6 (30 μg/kg) (sciatic nerve crush mice; 30 μg/kg s.c.) | CMAP latency vs vehicle treated mice (sciatic nerve crush mice; day 7, SDF-1α 30 μg/kg and 100 μg/kg, IL-6 30 μg/kg s.c.) | CMAP latency vs vehicle treated mice (sciatic nerve crush mice; dpl 15 and 22, 30 μg/kg and 100 μg/kg s.c.)
1 | IL-6: reference (positive) control compound in nerve crush and STZ models [reference compound] | slight but significant increase | significantly lowered | significantly improved | significant reduction | about 1.5 times | – | – | –
2 | SDF-1α: Human recombinant chemokine SDF-1α (SEQ ID NO: 1), produced in house, expressed in E. Coli cells | slight but significant increase | significantly lowered | significantly improved | significant reduction | about 1.5 times | more potent than IL-6 | significantly reduced | significant effect

Reference: US20080253996A1, “Use of Sdf-1 for the Treatment and/or Prevention of Neurological Diseases” (LABORATORIES SERONO SA, priority 2005, published 2008)
